Assay results as given in patent US5298619A, “1,4-dihydropyridine compounds with PAF-antagonistic activity” (Alter, S.A., priority 1991, dated 1994).

System: aggregation induced by 1-PAF in rabbit platelets
Test: Effect on the aggregation induced by 1-PAF in rabbit platelets (washed platelets)
Format: cell-based, rabbit (male, albino, New Zealand)
Settings: Oryctolagus cuniculus, Platelet, 37° C., 5 min preincubation, 1-PAF=1.92 nM, compounds 10 to 0.1 micM, mean of three experiments in duplicate
Procedure: STUDIES WITH WASHED PLATELETS: Aggregation
The suspensions of washed platelets were obtained from rabbit's blood (male, albino, New Zealand), anticoagulated with a solution of citric acid citrate/sodium dextrose in the ratio 1:6 (v:v).
The platelet rich plasma (PRP) was obtained by centrifuging blood samples at 100×g for 10 minutes and the platelets by centrifuging the PRP at 1,800×g for 15 minutes at 4° C. The pellet obtained in this way was washed twice with Tyrode tampon containing citric acid, PGE and aspirase, pH 6.5. The platelets so-washed were finally resuspended in Hepes-Tyrode tampon, pH 7.35 supplemented with bovine seric albumin at 0.35%; Ca++ 2 mM.
The final platelet concentration was adjusted to 300,000 platelets/mic-1. The aggregation was measured turbidimetrically using a lumiaggregometre (Chrono-Log.Co; Haventon, Pa., USA) at 37° C. under stirring at 1,100 r.p.m. The study was made in aliquots of preincubated PRP, with the compounds under study, for 5 minutes. The concentration of the antagonists was, in all cases, between 10 micM and 0.1 micM. The aggregation was induced by adding L-PAF diluted in 5 micl of Hepes/albumin tampon, the final concentration being 1.9×0,000000001. The IC50 for each compound was evaluated graphically from the dose-response curves.
The data reflected is the mean of three experiments performed in duplicate. Concentration of 1-PAF=1.92 nM.
The concentrations of compounds, in all cases, were between 10 and 0.1 micM .
Compound `COC(=O)C1=C(C)NC(C)=C(C(=O)OCCCSc2ccc(Cl)cc2)C1C` (centres unmarked) [Example 1, 3-(4-chlorophenylthio) propyl 5-methoxycarbonyl-2,4,6-trimethyl-1,4-dihydropyridine-3-carboxylate] has an IC50 of 340 nM. With `COC(=O)C1=C(C)NC(C)=C(C(=O)OCCS(=O)(=O)c2ccc(C)cc2)C1C` (centres unmarked) [Example 2, 2-(4-methylphenylsulphonyl) ethyl 5-methoxycarbonyl-2,4,6-trimethyl-1,4-dihydropyridine-3-carboxylate] the IC50 was 1100 nM. In the case of `COC(=O)C1=C(C)NC(C)=C(C(=O)OCCCOc2ccc(-c3ccccc3)cc2)C1C` (centres unmarked) [Example 3, 3-(4-phenylphenoxy) propyl 5-methoxycarbonyl-2,4,6-trimethyl-1,4-dihydropyridine-3-carboxylate], the IC50 is reported as 240 nM. With `COC(=O)C1=C(C)NC(C)=C(C(=O)OCCCSc2ccc(C)cc2)C1C` (centres unmarked) [Example 4, 3-(4-methylphenylthio) propyl 5-methoxycarbonyl-2,4,6-trimethyl-1,4-dihydropyridine-3-carboxylate] the IC50 was 850 nM. With `COC(=O)C1=C(C)NC(C)=C(C(=O)OCCS(=O)(=O)c2ccccc2)C1C` (centres unmarked) [Example 5, 2-(phenylsulphonyl) ethyl 5-methoxycarbonyl-2,4,6-trimethyl-1,4-dihydropyridine-3-carboxylate] the IC50 was 1300 nM. Compound `COC(=O)C1=C(C)NC(C)=C(C(=O)OCCCOc2ccccc2)C1C` (centres unmarked) [Example 6] has an IC50 of 3000 nM. `COC(=O)C1=C(C)NC(C)=C(C(=O)OCCCS(=O)(=O)c2ccccc2)C1C` (centres unmarked) [Example 13] showed an IC50 of 2300 nM. `COC(=O)C1=C(C)NC(C)=C(C(=O)OCCCSc2ccc(NC(C)=O)cc2)C1C` (centres unmarked) [Example 30] showed an IC50 of 3100 nM. In the case of `COC(=O)C1=C(C)NC(C)=C(C(=O)OCCCOc2ccc(Cl)c(Cl)c2)C1C` (centres unmarked) [Example 41], the IC50 is reported as 2700 nM. Compound `COC(=O)C1=C(C)NC(C)=C(C(=O)OCCCSc2ccc(Cl)c(Cl)c2)C1C` (centres unmarked) [Example 45] has an IC50 of 150 nM. Compound `CCOC(=O)C1=C(C)NC(C)=C(C(=O)OCCCSc2ccc(Cl)c(Cl)c2)C1C` (centres unmarked) [Example 46] has an IC50 of 1400 nM. With `COC(=O)C1=C(C)NC(C)=C(C(=O)OCCCOc2ccc(C)cc2)C1C` (centres unmarked) [Example 48] the IC50 was 4000 nM. Work on `COC(=O)C1=C(C)NC(C)=C(C(=O)OCCCS(=O)(=O)c2ccc(C)cc2)C1C` (centres unmarked) [Example 52] yielded an IC50 of 2700 nM. Compound `COC(=O)C1=C(C)NC(C)=C(C(=O)OCCCOc2ccc(OC)cc2)C1C` (centres unmarked) [Example 61] has an IC50 of 2000 nM. `COC(=O)C1=C(C)NC(C)=C(C(=O)OCCOc2ccc(OC)cc2)C1C` (centres unmarked) [Example 62] gave an IC50 of 10000 nM. Work on `COC(=O)C1=C(C)NC(C)=C(C(=O)OCCOc2ccc(-c3ccccc3)cc2)C1C` (centres unmarked) [Example 64] yielded an IC50 of 2800 nM. Compound `CCOC(=O)C1=C(C)NC(C)=C(C(=O)OCCCOc2ccc(-c3ccccc3)cc2)C1C` (centres unmarked) [Example 66] has an IC50 of 2400 nM. `CCOC(=O)C1=C(C)NC(C)=C(C(=O)OCCS(=O)(=O)c2ccccc2)C1C` (centres unmarked) [Example 74] showed an IC50 of 2800 nM. `COC(=O)C1=C(C)NC(C)=C(C(=O)OCCCSc2ccc([N+](=O)[O-])cc2)C1C` (centres unmarked) [Example 76] gave an IC50 of 2800 nM. `CCOC(=O)C1=C(C)NC(C)=C(C(=O)OCCCSc2ccc(Cl)cc2)C1C` (centres unmarked) [Example 82] gave an IC50 of 2800 nM. For `COC(=O)C1=C(C)NC(C)=C(C(=O)OCCOc2ccc([N+](=O)[O-])cc2)C1C` (centres unmarked) [Example 110], the IC50 was 4300 nM. For `COC(=O)C1=C(C)NC(C)=C(C(=O)OCCOc2cccc3ccccc23)C1C` (centres unmarked) [Example 113], the IC50 was 3000 nM. `COC(=O)C1=C(C)NC(C)=C(C(=O)OCCOc2ccc(Cl)cc2)C1C` (centres unmarked) [Example 131] gave an IC50 of 10000 nM. Compound `CCOC(=O)C1=C(C)NC(C)=C(C(=O)OCCCOc2cccc(N(C)C)c2)C1C` (centres unmarked) [Example 133] has an IC50 of 2400 nM. In the case of `COC(=O)C1=C(C)NC(C)=C(C(=O)OCCOc2cccc(N(C)C)c2)C1C` (centres unmarked) [Example 135], the IC50 is reported as 2800 nM. Work on `COC(=O)C1=C(C)NC(C)=C(C(=O)OCCCOc2ccc(Oc3ccccc3)cc2)C1C` (centres unmarked) [Example 139] yielded an IC50 of 700 nM. `COC(=O)C1=C(C)NC(C)=C(C(=O)OCCOc2ccc(Oc3ccccc3)cc2)C1C` (centres unmarked) [Example 140] showed an IC50 of 2000 nM. `CCOC(=O)C1=C(C)NC(C)=C(C(=O)OCCCOc2ccc3ccccc3c2)C1C` (centres unmarked) [Example 152, 3-(2-naphthyloxy) propyl 5-ethoxycarbonyl-2,4,6-trimethyl-1,4-dihydropyridine-3-carboxylate] gave an IC50 of 3000 nM. `COC(=O)C1=C(C)NC(C)=C(C(=O)OCCCOc2cccc3ccccc23)C1C` (centres unmarked) [Example 154] gave an IC50 of 1100 nM. Compound `COC(=O)C1=C(C)NC(C)=C(C(=O)OCCCSc2ccccc2)C1C` (centres unmarked) [Example 163, 3-(phenylthio) propyl 5-methoxycarbonyl-2,4,6-trimethyl-1,4-dihydropyridine-3-carboxylate] has an IC50 of 410 nM. Work on `CCC1C(C(=O)OC)=C(C)NC(C)=C1C(=O)OCCCSc1ccc(Cl)cc1` (centres unmarked) [Example 164, 3-(4-chlorophenylthio) propyl 2,6-dimethyl-4-ethyl-5-methoxycarbonyl-1,4-dihydropyridine-3-carboxylate] yielded an IC50 of 320 nM. Work on `CCOC(=O)C1=C(C)NC(C)=C(C(=O)OCCCSc2ccc(Cl)cc2)C1CC` (centres unmarked) [Example 165, 3-(4-chlorophenylthio) propyl 2,6-dimethyl-4-ethyl-5-ethoxycarbonyl-1,4-dihydropyridine-3-carboxylate] yielded an IC50 of 2500 nM. Compound `CCOC(=O)C1=C(C)NC(C)=C(C(=O)OCCCSc2ccccc2)C1C` (centres unmarked) [Example 166] has an IC50 of 2600 nM. `COC(=O)C1=C(C)NC(C)=C(C(=O)OCCCSc2ccc3ccccc3c2)C1C` (centres unmarked) [Example 167] showed an IC50 of 400 nM. Work on `CCC1C(C(=O)OC)=C(C)NC(C)=C1C(=O)OCCCSc1ccc(C)cc1` (centres unmarked) [Example 172] yielded an IC50 of 190 nM.

System: PAF
Test: not given
Settings: background statement; cited from earlier work
For `COc1ccc([C@@H]2Sc3ccccc3N(CCN(C)C)C(=O)[C@@H]2OC(C)=O)cc1` [Diltiazem], the PAF antagonistic properties is given as “present PAF antagonistic properties”. For `COc1ccc(CCN(C)CCCC(C#N)(c2cc(OC)c(OC)c(OC)c2)C(C)C)cc1OC` (centres unmarked) [Gallopamil], the PAF antagonistic properties is given as “present PAF antagonistic properties”. For `COC(=O)C1=C(C)NC(C)=C(C(=O)OC)C1c1ccccc1[N+](=O)[O-]` [Nifedipina], the PAF antagonistic properties is given as “only show a very weak activity”.

Same assay, conditions: fold higher than those inhibiting calcium flow in other cells; cited from earlier work
In the case of `COC(=O)C1=C(C)NC(C)=C(C(=O)OC)C1c1ccccc1[N+](=O)[O-]` [Nifedipina], the “concentrations needed to obtain an effect, relative to those inhibiting calcium flow in other cells” value is given as 1,000,000.

Same assay, conditions: times greater than the specific antagonists of the PAF-"acether"; cited from earlier work
In the case of `COC(=O)C1=C(C)NC(C)=C(C(=O)OC)C1c1ccccc1[N+](=O)[O-]` [Nifedipina], the “concentrations needed to obtain an effect, relative to the specific antagonists of the PAF-"acether"” value is listed as ≥ 1,000 times.

System: bronchoconstriction
Test: not given
Settings: doses times lower than histamine; cited from earlier work
For `CCCCCCCCCCCCCCCCOCC(COP(=O)([O-])OCC[N+](C)(C)C)OC(C)=O` (centres unmarked) [PAF-"acether", 1-O-hexadecyl/octodecyl-2-acetyl-sn-glycero-3-phosphocoline], the “doses inducing bronchoconstriction, relative to histamine” value is listed as 100 times lower.
